Assays:
[1] = mn = molality of the nth substance listed, in mol/kg; details: 87 kPa, Liquid, Vibrating tube method
[2] = osmotic coefficient (dimensionless); mn = molality of the nth substance listed, in mol/kg; details: 298.15 K, 87 kPa, Liquid, isopiestic method
[3] = wn = mass fraction of the nth substance listed; details: 87 kPa, Liquid, Vibrating tube method

CCn1cc[n+](C)c1.O=S(=O)([O-])O [1-ethyl-3-methylimidazolium hydrogen sulfate] + O
mass density [kg/m3], [1]
Details | m1 = 0.0363 | m1 = 0.0687 | m1 = 0.1026 | m1 = 0.1384 | m1 = 0.1716 | m1 = 0.2049 | m1 = 0.2391 | m1 = 0.2718 | m1 = 0.3034 | m1 = 0.3375
293.15 K | 1000.86 | 1003.08 | 1005.3 | 1007.57 | 1009.63 | 1011.67 | 1013.72 | 1015.68 | 1017.53 | 1019.54
298.15 K | 999.65 | 1001.82 | 1003.99 | 1006.22 | 1008.23 | 1010.23 | 1012.24 | 1014.17 | 1016 | 1017.98
303.15 K | 998.2 | 1000.33 | 1002.46 | 1004.64 | 1006.63 | 1008.6 | 1010.58 | 1012.47 | 1014.26 | 1016.21
308.15 K | 996.54 | 998.63 | 1000.73 | 1002.87 | 1004.82 | 1006.76 | 1008.7 | 1010.58 | 1012.34 | 1014.25
313.15 K | 994.68 | 996.73 | 998.8 | 1000.91 | 1002.83 | 1004.74 | 1006.66 | 1008.5 | 1010.24 | 1012.13

[2]
Details | osmotic coefficient
m1 = 1.038 | 0.895
m1 = 1.543 | 0.897
m1 = 1.745 | 0.898
m1 = 1.961 | 0.9
m1 = 2.045 | 0.904
m1 = 2.251 | 0.909
m1 = 2.534 | 0.915
m1 = 2.814 | 0.919
m1 = 3.343 | 0.93
m1 = 4.042 | 0.948
m1 = 4.513 | 0.96
m1 = 5.04 | 0.974
m1 = 5.663 | 0.993
m1 = 6.555 | 1.03
m1 = 6.91 | 1.05

[Cl-].[Li+] [lithium chloride] + O
mass density [kg/m3], [3]
Details | 293.15 K | 298.15 K | 303.15 K | 308.15 K | 313.15 K
w1 = 0.0346 | – | 1016.17 | 1014.72 | 1013.08 | 1011.25
w1 = 0.0691 | 1036.35 | 1035.04 | 1033.55 | 1031.8 | 1030.06
w1 = 0.1035 | 1055.18 | 1053.81 | 1052.33 | 1050.73 | 1049.03
w1 = 0.1379 | 1074.05 | 1072.65 | 1071.16 | 1069.55 | 1067.85

[2]
Details | osmotic coefficient
m1 = 0.9064 | 1.02
m1 = 1.278 | 1.08
m1 = 1.439 | 1.09
m1 = 1.616 | 1.09
m1 = 1.667 | 1.11
m1 = 1.83 | 1.12
m1 = 1.99 | 1.16
m1 = 2.183 | 1.18
m1 = 2.563 | 1.21
m1 = 3.014 | 1.27
m1 = 3.293 | 1.32
m1 = 3.572 | 1.37
m1 = 3.952 | 1.42
m1 = 4.457 | 1.51
m1 = 4.668 | 1.55

— the NIST ThermoML archive (doi:10.1016/j.jct.2016.07.003)
